{
  "source": "patent US20130143929A1",
  "about": "“FUNGICIDAL IMIDAZOLES” (EI DU PONT DE NEMOURS AND COMPANY, priority 2010, published 2013)",
  "format_in_all_cases": "in vivo",
  "key": {"[1]": {"tested_on": "Puccinia recondite f. sp. tritici (the causal agent of wheat leaf rust)", "test": "Test A: wheat leaf rust, preventive spray on wheat seedlings, visual disease rating", "details": "for Test A rating (100 = 100% disease control, 0 = no disease control relative to the controls): wheat leaf rust, preventive spray on wheat seedlings, asterisk: 40 ppm test suspension", "in_short": "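Wheat seedlings were sprayed to run-off with compound suspended in acetone/water containing 250 ppm Trem 014 (200 ppm ≈ 800 g/ha; some at 40 ppm). Puccinia recondite spores were inoculated the next day. Plants were held 24 h saturated at 20° C, then 7 days at 20° C, and disease control was rated visually on a 0–100 scale against controls.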"}, "[2]": {"tested_on": "Blumeria graminis f. sp. tritici (also known as Erysiphe graminis f. sp. tritici, the causal agent of wheat powdery mildew)", "test": "Test D: wheat powdery mildew, preventive spray on wheat seedlings, visual disease rating", "details": "for Test D rating (100 = 100% disease control, 0 = no disease control relative to the controls): wheat powdery mildew, preventive spray on wheat seedlings, asterisk: 40 ppm test suspension", "in_short": "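Compound suspended in acetone/water (50/50) with 250 ppm Trem 014 and sprayed to run-off on wheat seedlings (200 ppm ≈ 800 g/ha), then inoculated next day with spore dust. Disease rated visually after 8 days at 20 °C as % control relative to untreated plants (0-100).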"}, "[3]": {"tested_on": "Botrytis cinerea (the causal agent of tomato Botrytis)", "test": "Test C: tomato Botrytis, preventive spray on tomato seedlings, visual disease rating", "details": "for Test C rating (100 = 100% disease control, 0 = no disease control relative to the controls): tomato Botrytis, preventive spray on tomato seedlings, asterisk: 40 ppm test suspension", "in_short": "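Test suspension (acetone/water with 250 ppm Trem 014; 200 ppm equivalent to 800 g/ha) sprayed to run-off on tomato seedlings; B. cinerea spores inoculated next day. After 48 h saturated humidity at 20° C then 3 days at 24° C, disease rated visually as % control relative to untreated controls (0–100).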"}, "[4]": {"tested_on": "Septoria tritici (the causal agent of wheat leaf blotch)", "test": "Test B: wheat leaf blotch, preventive spray on wheat seedlings, visual disease rating", "details": "for Test B rating (100 = 100% disease control, 0 = no disease control relative to the controls): wheat leaf blotch, preventive spray on wheat seedlings, asterisk: 40 ppm test suspension", "in_short": "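Wheat seedlings sprayed to run-off with compound suspension (acetone/water with 250 ppm Trem 014; 200 ppm ≈ 800 g/ha, some at 40 ppm), inoculated next day with Septoria tritici spores. 48 h saturated humidity at 24 °C, then 19 days at 20 °C; visual rating, 100 = full control.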"}, "[5]": {"details": "no asterisk: standard test suspension concentration, 100 = 100% disease control, 0 = no control relative to controls"}},
  "note": "Marks after values point to notes of the source that are not given here.",
  "data": [
    {"smiles": "Cc1nc(Br)c(C(O)c2ccc(F)cc2F)n1-c1ccc(F)cc1F", "note": "(stereo not shown) [compound 382]", "values": [
      {"measurement": "Test A rating (% disease control, wheat leaf rust)", "setting": "[1]; [5]", "value": 100, "unit": "%"},
      {"measurement": "Test D rating (% disease control, wheat powdery mildew)", "setting": "[2]; [5]", "value": 0, "unit": "%"},
      {"measurement": "Test C rating (% disease control, tomato Botrytis)", "setting": "[3]; [5]", "value": 99, "unit": "%"},
      {"measurement": "Test B rating (% disease control, wheat leaf blotch)", "setting": "[4]; [5]", "value": 100, "unit": "%"}
    ]},
    {"smiles": "COc1ccc(C(O)c2c(C)nc(Cl)n2-c2c(F)cccc2Cl)c(C)c1", "note": "(stereo not shown) [compound 212]", "values": [
      {"measurement": "Test A rating (100 = 100% disease control, 0 = no disease control relative to the controls)", "setting": "[1]", "value": "100* %"},
      {"measurement": "Test D rating (100 = 100% disease control, 0 = no disease control relative to the controls)", "setting": "[2]", "value": "97* %"},
      {"measurement": "Test C rating (100 = 100% disease control, 0 = no disease control relative to the controls)", "setting": "[3]", "value": "100* %"},
      {"measurement": "Test B rating (100 = 100% disease control, 0 = no disease control relative to the controls)", "setting": "[4]", "value": "100* %"}
    ]},
    {"smiles": "OC(c1ccc(F)cc1F)c1c(Cl)ncn1-c1c(F)cc(Cl)cc1F", "note": "(stereo not shown) [compound 120]", "values": [
      {"measurement": "Test A rating (100 = 100% disease control, 0 = no disease control relative to the controls)", "setting": "[1]", "value": "98* %"},
      {"measurement": "Test D rating (100 = 100% disease control, 0 = no disease control relative to the controls)", "setting": "[2]", "value": "0* %"},
      {"measurement": "Test C rating (100 = 100% disease control, 0 = no disease control relative to the controls)", "setting": "[3]", "value": "99* %"},
      {"measurement": "Test B rating (100 = 100% disease control, 0 = no disease control relative to the controls)", "setting": "[4]", "value": "100* %"}
    ]},
    {"smiles": "Cc1nc(Cl)c(C(O)c2ccc(F)cc2Cl)n1-c1c(F)cc(F)cc1F", "note": "(stereo not shown) [compound 166]", "values": [
      {"measurement": "Test A rating (100 = 100% disease control, 0 = no disease control relative to the controls)", "setting": "[1]", "value": "100* %"},
      {"measurement": "Test D rating (100 = 100% disease control, 0 = no disease control relative to the controls)", "setting": "[2]", "value": "43* %"},
      {"measurement": "Test C rating (100 = 100% disease control, 0 = no disease control relative to the controls)", "setting": "[3]", "value": "100* %"},
      {"measurement": "Test B rating (100 = 100% disease control, 0 = no disease control relative to the controls)", "setting": "[4]", "value": "100* %"}
    ]},
    {"smiles": "COc1cc(F)c(C(O)c2c(Cl)ncn2-c2ccc(F)cc2Cl)c(F)c1", "note": "(racemic) [compound 234]", "values": [
      {"measurement": "Test A rating (100 = 100% disease control, 0 = no disease control relative to the controls)", "setting": "[1]", "value": "99* %"},
      {"measurement": "Test D rating (100 = 100% disease control, 0 = no disease control relative to the controls)", "setting": "[2]", "value": "43* %"},
      {"measurement": "Test C rating (100 = 100% disease control, 0 = no disease control relative to the controls)", "setting": "[3]", "value": "26* %"},
      {"measurement": "Test B rating (100 = 100% disease control, 0 = no disease control relative to the controls)", "setting": "[4]", "value": "79* %"}
    ]},
    {"smiles": "COc1ccc(C(O)c2c(Cl)nc(C)n2-c2ccc(F)cc2F)c(Cl)c1", "note": "(stereo not shown) [compound 307]", "values": [
      {"measurement": "Test A rating (100 = 100% disease control, 0 = no disease control relative to the controls)", "setting": "[1]", "value": "99* %"},
      {"measurement": "Test D rating (100 = 100% disease control, 0 = no disease control relative to the controls)", "setting": "[2]", "value": "0* %"},
      {"measurement": "Test C rating (100 = 100% disease control, 0 = no disease control relative to the controls)", "setting": "[3]", "value": "0* %"},
      {"measurement": "Test B rating (100 = 100% disease control, 0 = no disease control relative to the controls)", "setting": "[4]", "value": "100* %"}
    ]},
    {"smiles": "Cc1nc(Br)c(C(O)c2ccc(F)cc2Cl)n1-c1c(F)cccc1F", "note": "(stereo not shown) [compound 99]", "values": [
      {"measurement": "Test A rating (100 = 100% disease control, 0 = no disease control relative to the controls)", "setting": "[1]", "value": "100* %"},
      {"measurement": "Test D rating (100 = 100% disease control, 0 = no disease control relative to the controls)", "setting": "[2]", "value": "98* %"},
      {"measurement": "Test C rating (100 = 100% disease control, 0 = no disease control relative to the controls)", "setting": "[3]", "value": "99* %"},
      {"measurement": "Test B rating (100 = 100% disease control, 0 = no disease control relative to the controls)", "setting": "[4]", "value": "100* %"}
    ]},
    {"smiles": "COc1ccc(C(O)c2c(Cl)nc(C)n2-c2c(F)cc(F)cc2Cl)c(F)c1", "note": "(stereo not shown) [compound 345]", "values": [
      {"measurement": "Test A rating (100 = 100% disease control, 0 = no disease control relative to the controls)", "setting": "[1]", "value": "100* %"},
      {"measurement": "Test D rating (100 = 100% disease control, 0 = no disease control relative to the controls)", "setting": "[2]", "value": "35* %"},
      {"measurement": "Test C rating (100 = 100% disease control, 0 = no disease control relative to the controls)", "setting": "[3]", "value": "99* %"},
      {"measurement": "Test B rating (100 = 100% disease control, 0 = no disease control relative to the controls)", "setting": "[4]", "value": "100* %"}
    ]},
    {"smiles": "Cc1cccc(F)c1-n1c(C)nc(Cl)c1C(O)c1ccc(F)cc1Cl", "note": "(stereo not shown) [compound 340]", "values": [
      {"measurement": "Test A rating (100 = 100% disease control, 0 = no disease control relative to the controls)", "setting": "[1]", "value": "99* %"},
      {"measurement": "Test D rating (100 = 100% disease control, 0 = no disease control relative to the controls)", "setting": "[2]", "value": "89* %"},
      {"measurement": "Test C rating (100 = 100% disease control, 0 = no disease control relative to the controls)", "setting": "[3]", "value": "96* %"},
      {"measurement": "Test B rating (100 = 100% disease control, 0 = no disease control relative to the controls)", "setting": "[4]", "value": "100* %"}
    ]},
    {"smiles": "COc1ccc(C(O)c2c(Cl)nc(Br)n2-c2ccc(F)cc2Cl)c(Cl)c1", "note": "(stereo not shown) [compound 357]", "values": [
      {"measurement": "Test A rating (100 = 100% disease control, 0 = no disease control relative to the controls)", "setting": "[1]", "value": "100* %"},
      {"measurement": "Test D rating (100 = 100% disease control, 0 = no disease control relative to the controls)", "setting": "[2]", "value": "98* %"},
      {"measurement": "Test C rating (100 = 100% disease control, 0 = no disease control relative to the controls)", "setting": "[3]", "value": "99* %"},
      {"measurement": "Test B rating (100 = 100% disease control, 0 = no disease control relative to the controls)", "setting": "[4]", "value": "100* %"}
    ]}
  ]
}
